Among the test systems are 786-0 renal; NCI-H522 lung; RPMI-8226 leukemia; SF-539 CNS; NCI-H23 lung; TK-10 renal; NCI-H226 lung; HCT-116 colon; UO-31 renal; MALME-3M melanoma.
Common to all, as to experiment: inhibition of tumour cell growth, NCI panel, 48 h

“And” between values parts separate entries of the source, which are not always exact repeats. Identical values can stand only once.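 48-hour exposure; five concentrations; linearly interpolated endpoints. GI50 marks 50% less growth. The concentration for full growth arrest is given as TGI.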

In the case of `CS(=O)(=O)CCNCc1ccc(-c2ccc3ncnc(Nc4ccc(OCc5ccccc5)c(C(F)(F)F)c4)c3c2)o1`, the GI50 with 786-0 renal is 5.32 µM; in the experiment with NCI-H522 lung, 5.02 µM; with RPMI-8226 leukemia it was 7.37 µM; with SF-539 CNS it was 4.69 µM; with NCI-H23 lung, 6.37 µM; with TK-10 renal, 7.61 µM. The GI50 is 7.75 µM in the experiment on NCI-H226 lung, 4.27 µM in the experiment on HCT-116 colon, 5.25 µM with UO-31 renal and 4.57 µM with MALME-3M melanoma. Further, the TGI in the experiment with 786-0 renal is 11 µM; in the experiment on NCI-H522 lung, 9.94 µM; in the experiment on RPMI-8226 leukemia, 18.2 µM; in the experiment on SF-539 CNS, 9.88 µM; in the experiment on NCI-H23 lung it was above 19.4 µM; with TK-10 renal, 22.7 µM. In addition, the TGI was above 25 µM with NCI-H226 lung, 7.88 µM in the experiment with HCT-116 colon, 17.2 µM with UO-31 renal and 9.53 µM in the experiment with MALME-3M melanoma.
On to `CC(C#N)c1cn(S(=O)(=O)c2ccccc2)c2ccccc12` (stereo not given), for which the TGI with 786-0 renal is above 100 µM; in the experiment on NCI-H522 lung, 94.9 µM; in the experiment with RPMI-8226 leukemia, above 100 µM; in the experiment with SF-539 CNS, above 100 µM; in the experiment on NCI-H23 lung, above 100 µM; in the experiment on TK-10 renal, above 100 µM. Also, the TGI with NCI-H226 lung was above 100 µM; in the experiment with HCT-116 colon it was above 100 µM; in the experiment on UO-31 renal, 62.4 µM; in the experiment on MALME-3M melanoma it was above 100 µM.
Regarding `O=c1oc2ccc(Cl)cc2c(=O)n1-c1ccc(Cl)cc1F`, the GI50 in the experiment on 786-0 renal is 1.76 µM; with NCI-H522 lung it was 0.331 µM; in the experiment on RPMI-8226 leukemia, 0.28 µM; with SF-539 CNS, 0.462 µM; with NCI-H23 lung it was 0.326 µM; in the experiment with TK-10 renal, 1.59 µM. The GI50 is 0.576 µM in the experiment on NCI-H226 lung, 0.442 µM in the experiment with HCT-116 colon, 0.188 µM with UO-31 renal and 0.313 µM in the experiment with MALME-3M melanoma. Also, the TGI stood at 4.8 µM in the experiment with 786-0 renal; 3.22 µM with NCI-H522 lung; 1.09 µM in the experiment on RPMI-8226 leukemia; 3.7 µM in the experiment on SF-539 CNS; 1.79 µM in the experiment with NCI-H23 lung; 17.7 µM with TK-10 renal. For the same compound, the TGI stood at 3.3 µM with NCI-H226 lung, 1.7 µM with HCT-116 colon, 1.62 µM in the experiment on UO-31 renal and 1.55 µM in the experiment with MALME-3M melanoma.
`C[C@]12CCC[C@H](OC=O)C1(O)C[C@H](C(=O)O)CC2` (stereo not given in full): the TGI with 786-0 renal, in the experiment with NCI-H522 lung, with RPMI-8226 leukemia, in the experiment with SF-539 CNS, in the experiment on NCI-H23 lung and in the experiment on TK-10 renal was above 100 µM in each case. Further, the TGI in the experiment on NCI-H226 lung, in the experiment with HCT-116 colon, with UO-31 renal and in the experiment with MALME-3M melanoma was above 100 µM throughout.
As to `CN(C)CC/C=C1\c2ccccc2Sc2ccc(Cl)cc21`, the GI50 in the experiment on 786-0 renal was 2.5 µM; with NCI-H522 lung, 1.67 µM; in the experiment on RPMI-8226 leukemia, 2.69 µM; in the experiment on SF-539 CNS, 3.61 µM; with NCI-H23 lung, 3.52 µM; in the experiment on TK-10 renal, 1.91 µM. For the same compound, the GI50 in the experiment with NCI-H226 lung was 2.45 µM; in the experiment with HCT-116 colon it was 2.4 µM; with UO-31 renal, 2.96 µM; in the experiment on MALME-3M melanoma, 1.71 µM. Besides, the TGI is 6.88 µM and 25.6 µM with 786-0 renal; 3.23 µM and 29.1 µM in the experiment with NCI-H522 lung; 9.19 µM and 17.2 µM with RPMI-8226 leukemia; 11.2 µM and 36.2 µM with SF-539 CNS; 15.7 µM and 31.3 µM in the experiment with NCI-H23 lung; 3.95 µM and 28.3 µM in the experiment with TK-10 renal. Also, the TGI in the experiment with NCI-H226 lung was 9.11 µM and 38 µM; in the experiment with HCT-116 colon it was 6.13 µM and 24.4 µM; with UO-31 renal, 15.6 µM and 21.5 µM; in the experiment on MALME-3M melanoma, 3.47 µM and 28 µM.
For `N=c1nc(N)c2cc3c(N)nc(=N)c3cc12`, the TGI in the experiment with 786-0 renal is 56.6 µM; in the experiment with NCI-H522 lung it was 46.4 µM; with RPMI-8226 leukemia it was 23.9 µM; in the experiment with SF-539 CNS, 31.5 µM; with NCI-H23 lung, above 100 µM; with TK-10 renal it was 57.2 µM. Moreover, the TGI stood at 44.7 µM with NCI-H226 lung, 34.4 µM with HCT-116 colon, 34.5 µM in the experiment with UO-31 renal and 18 µM with MALME-3M melanoma.
As for `C/C(=C\c1ccn(-c2ccc(N)c(C(F)(F)F)c2)n1)[C@@H]1C[C@@H]2O[C@]2(C)CCC[C@H](C)[C@H](O)[C@@H](C)C(=O)C(C)(C)[C@@H](O)CC(=O)O1`, the GI50 is 0.0175 µM in the experiment on 786-0 renal; 0.0085 µM in the experiment with NCI-H522 lung; below 0.0104 µM in the experiment with RPMI-8226 leukemia; 0.00984 µM in the experiment on SF-539 CNS; 0.0221 µM with NCI-H23 lung; 0.0548 µM in the experiment with TK-10 renal. Further, the GI50 is 1.99 µM in the experiment on NCI-H226 lung, 0.00733 µM with HCT-116 colon, 0.055 µM in the experiment with UO-31 renal and 0.015 µM in the experiment on MALME-3M melanoma. Further, the TGI in the experiment on 786-0 renal was 12.1 µM; in the experiment with NCI-H522 lung it was 0.0576 µM; in the experiment with RPMI-8226 leukemia, 10.5 µM; with SF-539 CNS, 0.593 µM; in the experiment with NCI-H23 lung it was above 32.5 µM; with TK-10 renal it was 16.9 µM. For the same compound, the TGI is above 32.5 µM in the experiment with NCI-H226 lung, above 29.3 µM in the experiment with HCT-116 colon, above 32.5 µM with UO-31 renal and 16.7 µM in the experiment on MALME-3M melanoma.

The values above are taken from PubChem BioAssay (NCI).
